What was measured:
Test in all cases: KINOMEscan binding assay
RIOK1 = target: T1, RIOK1 (Homo sapiens, UniProt Q9BRS2); settings: read-out: % Retention on Solid Support
T1 construct: purchased DiscoveRx KINOMEscan
In short: (§1)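 Active site-directed competition binding measured kinase engagement within a panel of over 400 kinases. i-CDK9 was tested at two concentrations, 1 and 10 µM.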

MAP4K2 = target: T2, MAP4K2 (Homo sapiens, UniProt Q12851); settings: read-out: % Retention on Solid Support
T2 construct: purchased DiscoveRx KINOMEscan
In short: as §1

RIPK5 = target: T3, RIPK5 (Homo sapiens, UniProt Q6XUX3); settings: 1 µM i-CDK9; read-out: % Retention on Solid Support
T3 construct: purchased DiscoveRx KINOMEscan
In short: as §1

[1] = target: T4, RSK4(Kin.Dom.2-C-terminal) (Homo sapiens, UniProt Q9UK32)
T4 construct: RSK4(Kin.Dom.2-C-terminal); purchased DiscoveRx KINOMEscan
In short: as §1

EGFR(S752-I759del) = target: T5, EGFR(S752-I759del) (Homo sapiens, UniProt P00533, DEL752-759)
T5 construct: purchased DiscoveRx KINOMEscan
In short: as §1

PRKD3 = target: T6, PRKD3 (Homo sapiens, UniProt O94806); settings: read-out: % Retention on Solid Support
T6 construct: purchased DiscoveRx KINOMEscan
In short: as §1

[2] = target: RPS6KA4(Kin.Dom.2-C-terminal) (Homo sapiens, UniProt O75676); settings: read-out: % Retention on Solid Support
In short: as §1

PCTK3 = target: T7, PCTK3 (Homo sapiens, UniProt Q07002); settings: read-out: % Retention on Solid Support
T7 construct: purchased DiscoveRx KINOMEscan
In short: as §1

FLT3(N841I) = target: T8, FLT3(N841I) (Homo sapiens, UniProt P36888, N841I); settings: read-out: % Retention on Solid Support
T8 construct: purchased DiscoveRx KINOMEscan
In short: as §1

ROCK2 = target: T9, ROCK2 (Homo sapiens, UniProt O75116); settings: read-out: % Retention on Solid Support
T9 construct: purchased DiscoveRx KINOMEscan
In short: as §1

FGFR3(G697C) = target: T10, FGFR3(G697C) (Homo sapiens, UniProt P22607, G697C); settings: read-out: % Retention on Solid Support
T10 construct: purchased DiscoveRx KINOMEscan
In short: as §1

CDK11 = target: T11, CDK11 (Homo sapiens, UniProt Q9BWU1)
T11 construct: purchased DiscoveRx KINOMEscan
In short: as §1

LRRK2(G2019S) = target: T12, LRRK2(G2019S) (Homo sapiens, UniProt Q5S007, G2019S); settings: 1 µM i-CDK9; read-out: % Retention on Solid Support
T12 construct: purchased DiscoveRx KINOMEscan
In short: as §1

NDR2 = target: T13, NDR2 (Homo sapiens, UniProt Q9Y2H1); settings: read-out: % Retention on Solid Support
T13 construct: purchased DiscoveRx KINOMEscan
In short: as §1

CLK1 = target: T14, CLK1 (Homo sapiens, UniProt P49759); settings: read-out: % Retention on Solid Support
T14 construct: purchased DiscoveRx KINOMEscan
In short: as §1

ACVR2A = target: T15, ACVR2A (Homo sapiens, UniProt P27037); settings: read-out: % Retention on Solid Support
T15 construct: purchased DiscoveRx KINOMEscan
In short: as §1

[3] = target: T16, ABL1(F317L)-nonphosphorylated (Homo sapiens, UniProt P00519, F317L); settings: read-out: % Retention on Solid Support
T16 construct: purchased DiscoveRx KINOMEscan
In short: as §1

CDK4-cyclinD3 = target: T17, CDK4-cyclinD3 (Homo sapiens, UniProt P11802); settings: 1 µM i-CDK9; read-out: % Retention on Solid Support
T17 construct: purchased DiscoveRx KINOMEscan
In short: as §1

[4] = target: T18, ABL1(M351T)-phosphorylated (Homo sapiens, UniProt P00519, M351T); settings: 1 µM i-CDK9; read-out: % Retention on Solid Support
T18 construct: purchased DiscoveRx KINOMEscan
In short: as §1

TIE2 = target: T19, TIE2 (Homo sapiens, UniProt Q02763); settings: read-out: % Retention on Solid Support
T19 construct: purchased DiscoveRx KINOMEscan
In short: as §1

RET(M918T) = target: T20, RET(M918T) (Homo sapiens, UniProt P07949, M918T); settings: read-out: % Retention on Solid Support
T20 construct: purchased DiscoveRx KINOMEscan
In short: as §1

MUSK = target: T21, MUSK (Homo sapiens, UniProt O15146); settings: read-out: % Retention on Solid Support
T21 construct: purchased DiscoveRx KINOMEscan
In short: as §1

MST4 = target: T22, MST4 (Homo sapiens, UniProt Q9P289); settings: read-out: % Retention on Solid Support
T22 construct: purchased DiscoveRx KINOMEscan
In short: as §1

JNK1 = target: T23, JNK1 (Homo sapiens, UniProt P45983)
T23 construct: purchased DiscoveRx KINOMEscan
In short: as §1

PKAC-beta = target: T24, PKAC-beta (Homo sapiens, UniProt P22694); settings: read-out: % Retention on Solid Support
T24 construct: purchased DiscoveRx KINOMEscan
In short: as §1

IKK-epsilon = target: T25, IKK-epsilon (Homo sapiens, UniProt Q14164); settings: read-out: % Retention on Solid Support
T25 construct: purchased DiscoveRx KINOMEscan
In short: as §1

VEGFR2 = target: T26, VEGFR2 (Homo sapiens, UniProt P35968); settings: read-out: % Retention on Solid Support
T26 construct: purchased DiscoveRx KINOMEscan
In short: as §1

[5] = target: RPS6KA5(Kin.Dom.2-C-terminal) (Homo sapiens, UniProt O75582); settings: read-out: % Retention on Solid Support
In short: as §1

[6] = target: T27, ABL1(F317I)-phosphorylated (Homo sapiens, UniProt P00519, F317I); settings: 1 µM i-CDK9; read-out: % Retention on Solid Support
T27 construct: purchased DiscoveRx KINOMEscan
In short: as §1

T14 sequence (P49759 whole entry): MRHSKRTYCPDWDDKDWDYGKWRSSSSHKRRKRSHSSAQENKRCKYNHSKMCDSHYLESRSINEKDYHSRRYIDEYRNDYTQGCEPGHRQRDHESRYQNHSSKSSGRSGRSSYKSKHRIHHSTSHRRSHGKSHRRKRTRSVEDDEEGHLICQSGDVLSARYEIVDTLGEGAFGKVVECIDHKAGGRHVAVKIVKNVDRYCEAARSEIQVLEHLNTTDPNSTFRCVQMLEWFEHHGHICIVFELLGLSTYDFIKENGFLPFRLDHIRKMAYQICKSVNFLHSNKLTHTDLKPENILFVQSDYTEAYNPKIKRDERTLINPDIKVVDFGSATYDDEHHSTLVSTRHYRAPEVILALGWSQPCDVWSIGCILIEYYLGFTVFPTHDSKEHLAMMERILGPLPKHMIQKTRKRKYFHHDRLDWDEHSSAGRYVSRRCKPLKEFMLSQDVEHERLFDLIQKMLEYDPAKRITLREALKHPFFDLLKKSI
T21 sequence (O15146 24-869): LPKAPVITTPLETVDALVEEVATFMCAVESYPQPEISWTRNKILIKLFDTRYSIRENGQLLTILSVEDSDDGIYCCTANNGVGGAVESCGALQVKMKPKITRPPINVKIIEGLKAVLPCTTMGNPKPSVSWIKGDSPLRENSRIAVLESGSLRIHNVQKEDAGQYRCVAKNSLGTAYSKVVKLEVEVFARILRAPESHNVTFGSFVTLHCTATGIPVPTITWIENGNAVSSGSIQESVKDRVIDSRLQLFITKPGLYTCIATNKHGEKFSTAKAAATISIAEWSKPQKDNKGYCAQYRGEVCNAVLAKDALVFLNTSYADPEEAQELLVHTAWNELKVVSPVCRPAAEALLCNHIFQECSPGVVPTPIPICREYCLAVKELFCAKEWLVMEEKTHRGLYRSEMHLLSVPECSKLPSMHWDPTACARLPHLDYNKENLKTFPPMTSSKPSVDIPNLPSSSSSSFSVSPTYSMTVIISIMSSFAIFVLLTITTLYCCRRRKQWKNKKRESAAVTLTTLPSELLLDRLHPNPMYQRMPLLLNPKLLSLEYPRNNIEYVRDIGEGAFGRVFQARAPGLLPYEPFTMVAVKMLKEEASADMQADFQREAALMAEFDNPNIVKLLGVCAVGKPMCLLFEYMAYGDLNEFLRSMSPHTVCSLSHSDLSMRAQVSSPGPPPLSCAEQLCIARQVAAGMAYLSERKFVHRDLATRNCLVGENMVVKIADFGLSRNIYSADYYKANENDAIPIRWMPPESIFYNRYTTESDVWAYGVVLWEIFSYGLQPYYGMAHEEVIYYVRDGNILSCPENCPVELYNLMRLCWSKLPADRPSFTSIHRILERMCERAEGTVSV
T19 sequence (Q02763 23-1124): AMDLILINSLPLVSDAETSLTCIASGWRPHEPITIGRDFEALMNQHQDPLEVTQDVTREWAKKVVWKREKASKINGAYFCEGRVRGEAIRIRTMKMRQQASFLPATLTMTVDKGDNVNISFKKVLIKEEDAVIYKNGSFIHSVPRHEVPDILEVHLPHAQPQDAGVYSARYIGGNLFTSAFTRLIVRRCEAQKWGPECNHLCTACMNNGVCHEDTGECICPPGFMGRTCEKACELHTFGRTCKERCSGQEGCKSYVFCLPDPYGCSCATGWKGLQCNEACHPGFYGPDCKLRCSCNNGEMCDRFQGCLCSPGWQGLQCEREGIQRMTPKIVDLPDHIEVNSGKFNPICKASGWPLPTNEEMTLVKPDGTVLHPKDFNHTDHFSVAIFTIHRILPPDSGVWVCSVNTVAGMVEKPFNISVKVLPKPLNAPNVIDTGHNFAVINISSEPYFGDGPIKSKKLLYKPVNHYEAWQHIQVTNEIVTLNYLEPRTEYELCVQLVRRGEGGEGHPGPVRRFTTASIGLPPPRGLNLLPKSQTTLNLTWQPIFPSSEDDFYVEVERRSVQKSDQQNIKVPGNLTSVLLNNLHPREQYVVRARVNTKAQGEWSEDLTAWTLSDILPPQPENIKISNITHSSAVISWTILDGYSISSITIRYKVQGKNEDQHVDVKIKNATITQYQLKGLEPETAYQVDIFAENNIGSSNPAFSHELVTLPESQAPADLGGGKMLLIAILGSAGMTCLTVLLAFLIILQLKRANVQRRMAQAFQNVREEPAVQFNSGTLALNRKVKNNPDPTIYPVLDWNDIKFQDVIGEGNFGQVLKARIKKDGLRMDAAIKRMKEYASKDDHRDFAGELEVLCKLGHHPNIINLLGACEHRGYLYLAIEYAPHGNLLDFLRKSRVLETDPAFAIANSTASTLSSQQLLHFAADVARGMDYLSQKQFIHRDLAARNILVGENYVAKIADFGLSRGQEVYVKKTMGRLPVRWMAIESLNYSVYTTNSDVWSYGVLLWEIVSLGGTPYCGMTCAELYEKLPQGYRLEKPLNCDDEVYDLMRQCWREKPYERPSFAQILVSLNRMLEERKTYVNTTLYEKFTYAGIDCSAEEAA
T26 sequence (P35968 20-1356): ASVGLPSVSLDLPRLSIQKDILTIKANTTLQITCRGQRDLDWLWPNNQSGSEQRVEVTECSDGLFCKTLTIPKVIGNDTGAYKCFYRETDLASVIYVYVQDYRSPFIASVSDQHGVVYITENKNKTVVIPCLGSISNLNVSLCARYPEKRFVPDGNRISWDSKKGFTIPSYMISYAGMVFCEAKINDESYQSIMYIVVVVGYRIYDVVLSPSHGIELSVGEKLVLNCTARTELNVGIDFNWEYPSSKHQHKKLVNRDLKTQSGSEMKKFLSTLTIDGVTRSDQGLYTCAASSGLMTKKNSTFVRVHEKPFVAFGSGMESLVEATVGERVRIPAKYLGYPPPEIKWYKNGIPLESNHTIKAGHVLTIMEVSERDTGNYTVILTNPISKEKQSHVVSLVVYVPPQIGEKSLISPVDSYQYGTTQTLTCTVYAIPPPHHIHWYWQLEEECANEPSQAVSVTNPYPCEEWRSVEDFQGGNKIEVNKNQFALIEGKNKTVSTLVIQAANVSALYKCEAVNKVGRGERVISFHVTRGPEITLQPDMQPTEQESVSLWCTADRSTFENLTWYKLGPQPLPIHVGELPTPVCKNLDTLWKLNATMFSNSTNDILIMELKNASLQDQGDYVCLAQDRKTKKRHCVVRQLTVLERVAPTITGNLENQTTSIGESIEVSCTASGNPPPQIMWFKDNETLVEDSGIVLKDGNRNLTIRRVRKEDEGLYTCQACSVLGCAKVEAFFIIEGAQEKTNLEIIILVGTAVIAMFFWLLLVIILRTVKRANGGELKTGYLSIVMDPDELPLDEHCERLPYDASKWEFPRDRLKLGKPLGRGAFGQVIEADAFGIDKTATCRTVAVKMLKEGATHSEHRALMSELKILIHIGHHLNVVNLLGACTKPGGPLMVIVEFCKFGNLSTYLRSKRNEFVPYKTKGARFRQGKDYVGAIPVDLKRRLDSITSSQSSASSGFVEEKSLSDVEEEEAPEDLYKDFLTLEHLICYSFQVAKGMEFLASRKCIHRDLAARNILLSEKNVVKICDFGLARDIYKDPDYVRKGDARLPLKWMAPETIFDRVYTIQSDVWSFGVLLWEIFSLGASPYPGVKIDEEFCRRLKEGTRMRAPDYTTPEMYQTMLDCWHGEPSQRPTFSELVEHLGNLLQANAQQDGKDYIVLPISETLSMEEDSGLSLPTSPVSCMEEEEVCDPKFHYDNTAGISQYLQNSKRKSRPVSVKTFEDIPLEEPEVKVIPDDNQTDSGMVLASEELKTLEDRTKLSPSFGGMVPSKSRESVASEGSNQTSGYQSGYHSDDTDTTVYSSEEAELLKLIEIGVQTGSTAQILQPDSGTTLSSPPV
T22 sequence (Q9P289 whole entry): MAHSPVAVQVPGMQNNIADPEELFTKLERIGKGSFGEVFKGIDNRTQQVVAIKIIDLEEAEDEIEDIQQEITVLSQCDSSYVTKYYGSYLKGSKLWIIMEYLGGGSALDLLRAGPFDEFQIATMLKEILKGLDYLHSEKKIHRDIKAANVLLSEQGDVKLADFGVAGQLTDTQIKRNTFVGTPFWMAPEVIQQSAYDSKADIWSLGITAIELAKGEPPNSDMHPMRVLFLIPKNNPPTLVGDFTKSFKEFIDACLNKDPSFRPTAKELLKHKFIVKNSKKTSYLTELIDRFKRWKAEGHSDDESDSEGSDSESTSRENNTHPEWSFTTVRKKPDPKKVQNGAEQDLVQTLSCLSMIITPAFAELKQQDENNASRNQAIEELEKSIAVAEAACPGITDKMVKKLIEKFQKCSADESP
T13 sequence (Q9Y2H1 whole entry): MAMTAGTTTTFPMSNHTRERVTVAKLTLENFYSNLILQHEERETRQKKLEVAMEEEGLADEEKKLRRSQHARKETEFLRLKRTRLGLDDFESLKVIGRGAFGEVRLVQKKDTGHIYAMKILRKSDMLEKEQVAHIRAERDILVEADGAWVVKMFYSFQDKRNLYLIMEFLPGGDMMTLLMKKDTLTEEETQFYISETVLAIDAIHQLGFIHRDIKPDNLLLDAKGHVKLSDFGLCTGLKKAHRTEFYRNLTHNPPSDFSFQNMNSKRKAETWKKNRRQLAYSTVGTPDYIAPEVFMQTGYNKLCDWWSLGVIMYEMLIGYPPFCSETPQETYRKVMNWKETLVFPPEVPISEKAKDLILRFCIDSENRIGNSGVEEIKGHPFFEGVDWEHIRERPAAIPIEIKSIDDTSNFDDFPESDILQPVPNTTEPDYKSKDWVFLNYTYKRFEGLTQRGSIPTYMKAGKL
Chain of RPS6KA5(Kin.Dom.2-C-terminal) (O75582 388-802 limits assumed): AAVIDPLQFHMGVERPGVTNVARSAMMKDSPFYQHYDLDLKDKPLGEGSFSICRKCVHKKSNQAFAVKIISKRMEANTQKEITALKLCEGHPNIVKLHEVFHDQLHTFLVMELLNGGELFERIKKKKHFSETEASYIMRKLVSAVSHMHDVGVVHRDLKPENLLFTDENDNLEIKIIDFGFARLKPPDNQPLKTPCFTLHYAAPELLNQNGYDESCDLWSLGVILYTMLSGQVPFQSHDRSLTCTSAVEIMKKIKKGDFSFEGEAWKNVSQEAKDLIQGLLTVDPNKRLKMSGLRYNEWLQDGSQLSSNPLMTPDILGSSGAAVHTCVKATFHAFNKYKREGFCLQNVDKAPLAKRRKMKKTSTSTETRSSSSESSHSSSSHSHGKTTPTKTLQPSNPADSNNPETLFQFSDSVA

N[C@H]1CC[C@H](Nc2cc(-c3cccc(NCc4cccc(F)c4)n3)c(Cl)cn2)CC1 [i-CDK9, N2′-(trans-4-aminocyclohexyl)-5′-chloro-N6-(3-fluorobenzyl)-2,4′-bipyridine-2′,6-diamine]
remaining binding at 1 µM (RIOK1; 1 µM i-CDK9): 100% | remaining binding at 10 µM (RIOK1; 10 µM i-CDK9): 57% | remaining binding at 1 µM (MAP4K2; 1 µM i-CDK9): 64% | remaining binding at 10 µM (MAP4K2; 10 µM i-CDK9): 10% | remaining binding at 1 µM (RIPK5): 100% | % Retention on Solid Support ([1]; 1 µM i-CDK9): 53% | % Retention on Solid Support ([1]; 10 µM i-CDK9): 51% | % Retention on Solid Support (EGFR(S752-I759del); 1 µM i-CDK9): 77% | % Retention on Solid Support (EGFR(S752-I759del); 10 µM i-CDK9): 53% | remaining binding at 1 µM (PRKD3; 1 µM i-CDK9): 73% | remaining binding at 10 µM (PRKD3; 10 µM i-CDK9): 14% | remaining binding at 1 µM ([2]; 1 µM i-CDK9): 100% | remaining binding at 10 µM ([2]; 10 µM i-CDK9): 74% | remaining binding at 1 µM (PCTK3; 1 µM i-CDK9): 33% | remaining binding at 10 µM (PCTK3; 10 µM i-CDK9): 0.15% | remaining binding at 1 µM (FLT3(N841I); 1 µM i-CDK9): 48% | remaining binding at 10 µM (FLT3(N841I); 10 µM i-CDK9): 72% | remaining binding at 1 µM (ROCK2; 1 µM i-CDK9): 100% | remaining binding at 10 µM (ROCK2; 10 µM i-CDK9): 90% | remaining binding at 1 µM (FGFR3(G697C); 1 µM i-CDK9): 96% | remaining binding at 10 µM (FGFR3(G697C); 10 µM i-CDK9): 100% | % Retention on Solid Support (CDK11; 1 µM i-CDK9): 94% | % Retention on Solid Support (CDK11; 10 µM i-CDK9): 100% | remaining binding at 1 µM (LRRK2(G2019S)): 100% | remaining binding at 1 µM (NDR2; 1 µM i-CDK9): 95% | remaining binding at 10 µM (NDR2; 10 µM i-CDK9): 100% | remaining binding at 1 µM (CLK1; 1 µM i-CDK9): 14% | remaining binding at 10 µM (CLK1; 10 µM i-CDK9): 0.55% | remaining binding at 1 µM (ACVR2A; 1 µM i-CDK9): 98% | remaining binding at 10 µM (ACVR2A; 10 µM i-CDK9): 91% | remaining binding at 1 µM ([3]; 1 µM i-CDK9): 100% | remaining binding at 10 µM ([3]; 10 µM i-CDK9): 91% | remaining binding at 1 µM (CDK4-cyclinD3): 100% | remaining binding at 1 µM [4]: 96% | remaining binding at 1 µM (TIE2; 1 µM i-CDK9): 82% | remaining binding at 10 µM (TIE2; 10 µM i-CDK9): 100% | remaining binding at 1 µM (RET(M918T); 1 µM i-CDK9): 81% | remaining binding at 10 µM (RET(M918T); 10 µM i-CDK9): 73% | remaining binding at 1 µM (MUSK; 1 µM i-CDK9): 88% | remaining binding at 10 µM (MUSK; 10 µM i-CDK9): 100% | remaining binding at 1 µM (MST4; 1 µM i-CDK9): 100% | remaining binding at 10 µM (MST4; 10 µM i-CDK9): 100% | % Retention on Solid Support (JNK1; 1 µM i-CDK9): 80% | % Retention on Solid Support (JNK1; 10 µM i-CDK9): 34% | remaining binding at 1 µM (PKAC-beta; 1 µM i-CDK9): 80% | remaining binding at 10 µM (PKAC-beta; 10 µM i-CDK9): 80% | remaining binding at 1 µM (IKK-epsilon; 1 µM i-CDK9): 95% | remaining binding at 10 µM (IKK-epsilon; 10 µM i-CDK9): 100% | remaining binding at 1 µM (VEGFR2; 1 µM i-CDK9): 83% | remaining binding at 10 µM (VEGFR2; 10 µM i-CDK9): 93% | remaining binding at 1 µM ([5]; 1 µM i-CDK9): 100% | remaining binding at 10 µM ([5]; 10 µM i-CDK9): 100% | remaining binding at 1 µM [6]: 100%
